{
  "source": "patent US20240415114A1",
  "about": "“AGROCHEMICAL FORMULATIONS FOR MITIGATING CRYSTALLIZATION” (SYNGENTA CROP PROTECTION AG, priority 2021, published 2024)",
  "key": {"[1]": {"experiment": "Crystallization study of formulation containing fludioxonil (storage, 325 mesh sieve residue)", "assay_type": "physicochemical", "conditions": "2 weeks Condition 1 then 2 weeks at 25° C. or 5° C., FIG. 3", "experimental": "A formulation containing 0.72% w/w fludioxonil, 0.72% w/w picarbutrazox, 1.43% w/w sedaxane, 4.30% w/w thiabendazole and 1.07% w/w mefenoxam was prepared with castor oil or MK 116 Wax or soybean oil as the flow aid. Castor oil loading was maintained at 10% w/w. MK 116 wax loading was maintained at 5% w/w, whereas soybean oil concentration was varied over a range of 5-12% w/w. The formulation was aliquoted into 50 g samples and placed at temperatures of 50° C., 45° C. 38° C., a freeze thaw cycle going from 50° C. to −10° C. and at 25° C. These formulations were stored for 2 weeks at the indicated conditions (Condition 1), after which they were removed and placed at 25° C. or 5° C. for 2 weeks (Condition 2). After completion of the storage regime, the formulations were diluted with 200 mL of water and poured through a 325 mesh sieve. The residue was collected and analysed for the presence of fludioxonil."}, "[2]": {"experiment": "Solubility of fludioxonil in various vegetable oils", "assay_type": "physicochemical", "conditions": "5C, 25C and 50C, FIG. 1", "experimental": "0.5 g of fludioxonil technical was mixed separately with 5 g of various oils (peanut oil, castor oil, cottonseed oil, olive oil, canola oil, linseed oil, sunflower oil, safflower oil, corn oil, and soybean oil) and incubated at 3 different temperatures (5C, 25C and 50C). The mixtures were then centrifuged and the clear oil supernatant was recovered and analyzed for fludioxonil content."}},
  "data": [
    {"smiles": "N#Cc1c[nH]cc1-c1cccc2c1OC(F)(F)O2", "note": "[fludioxonil]", "values": [
      {"measurement": "loss of fludioxonil (fludioxonil content of sieve residue)", "setting": "[1]; MK 116 wax 5% w/w as flow aid", "value": "resulted in loss of fludioxonil"},
      {"measurement": "loss of fludioxonil (fludioxonil content of sieve residue)", "setting": "[1]; castor oil 10% w/w as flow aid", "value": "did not"},
      {"measurement": "loss of fludioxonil (fludioxonil content of sieve residue)", "setting": "[1]; soybean oil 5-12% w/w as flow aid", "value": "resulted in loss of fludioxonil"},
      {"measurement": "solubility of fludioxonil in oil", "setting": "[2]; all other oils (peanut, cottonseed, olive, canola, linseed, sunflower, safflower, corn, soybean)", "value": "essentially the same solubilities"},
      {"measurement": "solubility of fludioxonil in oil", "setting": "[2]; castor oil", "value": "significantly improved solubility"}
    ]}
  ]
}
